According to publication PMC12419922, “Myristoylated Cathelicidin-DM Fused With ANG1-7: A Novel Self-Assembling Antimicrobial Peptide for the Treatment and Mechanism of Diabetic Infected Wounds” (Journal of Diabetes Research, 2025):
Where a SMILES comes first, the peptide text is derived from it.

How the values were obtained:
[1] = tested on: PI3K/AKT/eNOS signaling pathway, MasR in HUVECs; assay: Western blot of PI3K/AKT/eNOS signaling pathway and MasR; type: cell-based, human; conditions: inhibitor group
Description: After the specified treatments, HUVECs were harvested using a cell scraper and lysed in cell lysis buffer (Wuhan Boster Biological Engineering Co., Ltd.) for 30 min at 4°C. Total protein was quantified using a BCA protein assay kit. Lysate (20 μg) from each sample was separated by 10% sodium dodecyl sulfate–polyacrylamide gel electrophoresis (SDS-PAGE) and then transferred to a polyvinylidene fluoride (PVDF) membrane. The membrane was blocked with a fresh blocking buffer containing 5% skim milk in Tris-buffered saline with 0.1% Tween 20 (TBS-T) for 2 h at room temperature and then incubated with primary antibodies against AKT (1:1000 dilution, #4691, Cell Signaling Technology), p-AKT (1:2000 dilution, #4060, Cell Signaling Technology), PI3K (1:1000 dilution, ab191606, Abcam), p-PI3K (1:1000 dilution, ab278545, Abcam), eNOS (1:1000 dilution, #32027, Cell Signaling Technology), p-eNOS (1:1000 dilution, ab215717, Abcam), and Mas (1:1000 dilution, #85003-1-RR, Proteintech) overnight at 4°C with shaking. The membrane was washed with TBS-T for 15 min and then incubated with horseradish peroxidase (HRP)–conjugated goat anti-rabbit secondary antibody (Wuhan Sanying Biotechnology Co., Ltd.) at a 1:2000 dilution in TBS-T and 3% skim milk for 90 min at room temperature. The membrane was washed three times with TBS-T, each for 15 min, and the immune reaction signals were detected using an ECL detection method. Protein bands were detected using a chemiluminescent gel imaging system (Bio-Rad Lab, China). Protein expression was quantitatively analyzed using ImageJ software (National Institutes of Health, Bethesda, MD, United States), and the experiment was repeated three times.

[2] = tested on: HUVECs; assay: Scratch wound healing assay; type: cell-based, human; conditions: HG + LPS, 20 μg/mL, n = 3; for wound healing rate (scratch assay): after 12 h; for healing area (scratch assay): at 48 h
Description: In a 6-well plate, HUVECs (2 × 10^5 cells/well) were seeded. The cells were starved in serum-free medium for 12 h, and then, a scratch was made vertically using a 200-μL pipette tip. […]

[3] = tested on: HUVECs; assay: Tube formation (angiogenesis) on Matrigel; type: cell-based, human; conditions: 9 h, n = 3
Description: The formation of vascular structure was observed by matrix glue experiment, and the angiogenesis ability was evaluated in Matrigel stent (Corning, New York). After treatment in each group, 300 μL (2 × 10^5 cells/mL) HUVECs were digested and inoculated into a 24-well plate containing Matrigel scaffold. After 9 h, the formation image of the tube was photographed.

[4] = tested on: HUVECs; assay: MDA, thiobarbituric acid method; type: cell-based, human; conditions: HUVEC supernatant, HG + LPS (HG + LPS increased by 1.65 times); n = 3
Description: The level of MDA was determined by the thiobarbituric acid (TBA) method. Briefly, 100 μL of cell supernatant was mixed with 200 μL of a 10% trichloroacetic acid solution of 0.67% TBA. The mixture was incubated at 95°C for 30 min, cooled on ice, and centrifuged at 12,000 × g at 4°C for 10 min. The absorbance of the supernatant was measured at 532 nm using an enzyme-labeled instrument. The experiments were repeated three times.

[5] = tested on: HUVECs; assay: NO secretion, Griess reaction; type: cell-based, human; conditions: HG + LPS (HG + LPS 0.5 times the original level), n = 3
Description: NO levels were determined using the Griess reaction. Briefly, 100 μL of cell culture supernatant was mixed with an equal volume of Griess reagent and incubated at room temperature in the dark for 30 min. The absorbance of the reaction mixture was measured at 540 nm using a microplate reader. Sodium nitrite (NaNO2) was used as a standard to generate a calibration curve, and the NO concentration in the samples was calculated accordingly. All experiments were independently performed in triplicate to ensure data reliability and reproducibility.

[6] = tested on: S. aureus (ATCC 25923) infected diabetic wound; assay: Diabetic mouse S. aureus-infected full-thickness skin wound model; conditions: for wound healing rate: 7th day, 20 μg/mL in PBS, 200 μL subcutaneously for 3 days, n = 4
Description: BALB/c male mice are from the Experimental Animal Center of Air Force Military Medical University. One group was fed a normal diet, and the other five groups were fed a high-fat diet for 4 weeks and then injected with 35 mg/kg streptozotocin (STZ, 35 mg/kg, Sigma) intraperitoneally for 3 days. […] After intraperitoneal injection of pentobarbital sodium (1%, […]), the dorsal hair of each animal was shaved off, and a circular full-thickness skin wound was created on the back using a 10-mm sterile mouse punch. S. aureus (ATCC 25923) was used to infect the wound site of mice, and a full-thickness wound infection model of mice was established. S. aureus was first resuscitated by operation in a biological ultra-clean table. A single colony was picked and incubated in LB medium at 37°C and 200 rpm. The concentration of the above S. aureus solution was adjusted to 1 × 10^8 CFU/mL to infect the wound of mice. Then, 24 h after S. aureus infection, three drugs, DM (20 μg/mL), ANG1-7 (20 μg/mL), and MYR-DM-ANG1-7 (20 μg/mL), were dissolved in PBS buffer, and 200 μL was injected subcutaneously for 3 days. After drug injection, the wound pus was diluted and coated with plate culture to observe the colony situation. The gross specimen imaging system (GF-7A, China) was used to record the wounds of mice on the same day and every other day after the formation of the wounds. The rubber ring with adhesive backing was used to fix the wound and prevent it from shrinking. ImageJ analysis software (NIH, Bethesda, MD, United States) was used to calculate and analyze the wound area. After 0, 3, 7, 10, and 14 days, the size of the infected wound was evaluated by rubber ring. The wound closure was measured as follows: the wound healing rate (%) = [W0 − Wn]/W0 × 100%, where W0 and Wn represent the wound area on the 0th and nth days, respectively (n = 4).
On the 14th day, the skin tissue was fixed in 4% paraformaldehyde solution, dehydrated, embedded in paraffin, sliced, and stained with hematoxylin–eosin (HE) and Masson. Skin tissue sections on Day 7 were immunofluorescently stained using rabbit anti-mouse CD31 (Cell Signaling Technology) and α-SMA (Cell Signaling Technology), and all stained sections were observed under the slide scanner (Aperio AT 2; Leica Biosystems, Germany).

Compound | increase in p-PI3K, p-AKT, and p-eNOS levels [1] | wound healing rate (scratch assay) [2] [%] | healing area (scratch assay) [2] [%] | length of formed blood vessels ([3]; HG + LPS (HG + LPS group 0.4 times)) [times] | secretion of MDA, increased by [4] [times] | NO secretion in cell supernatant, increases to [5] [times] | wound healing rate [6] [%] | fluorescence intensity of α-SMA ([6]; seventh day, vs the diabetes infection group, p < 0.01) | main connections of formed blood vessels ([3]; HG + LPS (HG + LPS group 0.3 times)) [times] | secretion of MDA, decreased by [4] [times]
O=c1cc(N2CCOCC2)oc2c(-c3ccccc3)cccc12 [LY294002, reference compound] | significantly inhibited | – | – | – | – | – | – | – | – | –
CC[C@H](C)[C@H](NC(=O)[C@H](CC(C)C)NC(=O)[C@@H](NC(=O)[C@H](Cc1ccc(O)cc1)NC(=O)CNC(=O)CNC(=O)[C@H](CCCNC(=N)N)NC(=O)[C@H](CC(C)C)NC(=O)[C@H](CCCCN)NC(=O)[C@H](CC(C)C)NC(=O)[C@H](CCCCN)NC(=O)[C@H](CS)NC(=O)[C@H](CC(C)C)NC(=O)[C@H](Cc1c[nH]c2ccccc12)NC(=O)CNC(=O)[C@H](CCCCN)NC(=O)[C@H](CS)NC(=O)[C@@H]1CCCN1C(=O)[C@H](CCCCN)NC(=O)[C@H](CCCNC(=N)N)NC(=O)[C@H](CCCNC(=N)N)NC(=O)[C@H](CO)NC(=O)[C@@H](N)CO)[C@@H](C)O)C(=O)NCC(=O)N[C@@H](CO)C(=O)N[C@@H](C)C(=O)N[C@H](C(=O)N[C@@H](CC(N)=O)C(=O)N[C@@H](CC(C)C)C(=O)N[C@@H](CC(N)=O)C(=O)N[C@@H](CCCNC(=N)N)C(=O)N1CCC[C@H]1C(=O)N[C@H](C(=O)N[C@@H](Cc1ccc(O)cc1)C(=O)N[C@H](C(=O)N[C@@H](CCCNC(=N)N)C(=O)N[C@@H](C)C(=O)O)C(C)C)[C@@H](C)O)[C@@H](C)O [DM, cathelicidin-DM] (H-SSRRKPCKGWLCKLKLRGGYTLIGSATNLNRPTYVRA-OH; N-terminus and C-terminus assumed) | – | 25.2 | 52.6 | 1.3 | 1.2 | 1.2 | 69.86 | significantly higher | – | –
DRVYIH [ANG1-7, angiotensin 1-7] | – | 44.7 | 72.06 | – | – | 1.65 | 40.69 | – | 1.4 | 0.56
